Test results published in US10238667B2, “Vitamin D receptor/SMAD genomic circuit gates fibrotic response” (Salk Institute for Biological Studies, priority 2013, dated 2019).

Tests used:
rat HSCs = assay: Microarray of culture-induced activation of HSCs; assay type: cell-based; conditions: 3 days culture on plastic, 10 nM 1,25(OH)2D3
Experimental: VDR Signaling Suppresses TGFβ-induced Pro-Fibrotic Genes. (A) Heat map comparing 519 differentially expressed genes in freshly isolated rat HSCs (quiescent HSCs, Q-HSCs), activated HSCs (A-HSCs, 3 days culture on plastic) and cells cultures in the presence of 10 nM 1,25(OH)2D3 (A-HSCs+1,25(OH)2D3). Euclidean clustering of both rows and columns using log2 transformed microarray expression data, n=2 per treatment group. […] Data represents the mean±SEM of at least three independent experiments performed in triplicate. Asterisks denote statistically significant differences (Student's unpaired t-test, *p<0.05, **p<0.01). HSCs were isolated from 10-week old male C57BL/6J mice and Wistar rats by in situ pronase, collagenase perfusion and single-step Histogenz gradient as previously reported (Hendriks et al., 1985; Knook et al., 1982). Isolated HSCs were cultured in DMEM (Mediatech) containing 20% FBS (Hyclone) on 6-well plates for 40 hours prior to end-point assays. Total RNA from primary rat or mouse HSCs was isolated using the RNeasy mini kit (Qiagen) according to standard protocols. RNA integrity and quality was assessed using the Agilent Bioanalyzer and prepared for hybridization to Illumina rat or mouse gene expression arrays according to standard Illumina protocols. Feature extraction was performed using the Illumina GenomeStudio software. […]

LX-2 cells = assay: TGFβ1-induced fibrotic gene expression (RT-qPCR, siRNA) in LX-2 cells; assay type: cell-based, human
Experimental: FIGS. 4A-4C. VDR Signaling Suppresses TGFβ-induced Pro-Fibrotic Genes. (A) Heat map comparing 519 differentially expressed genes in freshly isolated rat HSCs (quiescent HSCs, Q-HSCs), activated HSCs (A-HSCs, 3 days culture on plastic) and cells cultures in the presence of 10 nM 1,25(OH)2D3 (A-HSCs+1,25(OH)2D3). Euclidean clustering of both rows and columns using log2 transformed microarray expression data, n=2 per treatment group. (B) Heat map of fold expression change of genes involved in fibrosis in primary rat HSCs treated with TGFβ1 (1 ng/ml) and TGFβ1 plus 1,25(OH)2D3 (100 nM) for 24 hours, n=2 per treatment group. […] Data represents the mean±SEM of at least three independent experiments performed in triplicate. Asterisks denote statistically significant differences (Student's unpaired t-test, *p<0.05, **p<0.01).
LX-2 cells, a generous gift from Professor Scott Friedman, Mount Sinai School of Medicine, New York, N.Y., were cultured as described previously (Xu et al., 2005). […] For luciferase assays, DNA transfections were performed using Fugene 6 (Roche) following the manufacturer's instructions. […] Quantitative PCR was performed in technical triplicates using SYBR Green reagent (Biorad). The relative standard curve method was used for quantitation (Biorad). Expression levels were calculated by normalization to either Gapdh (mouse) or U36B4 (human) quantities. […]

SMAD3 = assay: ChIP-Seq signal intensity at VDR/SMAD3 co-occupied sites in LX-2 cells (SMAD3); assay type: cell-based, human; conditions: TGFβ1 1 ng/ml ± calcipotriol 100 nM, 4 hours
Description: FIGS. 10A-10G. Genomic Antagonism between VDR and SMAD. […] The three co-occupied sites are designated as 1, 2 and 3. (D) and (F) ChIP-qPCR at COL1A1 regulatory region #1 co-bound by VDR and SMAD3 in LX-2 cells treated as above. (E) and (G) ChIP-qPCR at COL1A1 regulatory region #1 of control (siCNTL), VDR-specific (siVDR), or SMAD3-specific (siSMAD3) siRNA transfected LX-2 cells treated as above. Occupancy is expressed relative to input chromatin. Data represents the mean±SEM of at least three independent experiments performed in triplicate. Asterisks denote statistically significant differences (Student's t-test, *p<0.05, **p<0.01).
Cells were then harvested for ChIP assay. The experimental procedure for ChIP was as previously described (Barish et al., 2010). […]
The procedure was as previously described (Barish et al., 2010). Briefly, short DNA reads were aligned against the human hg18 reference genome (NCBI Build 36.1) using the Illumina Pipeline Suite v1.7. Reads were aligned using the Bowtie aligner allowing up to 2 mismatches in the read. […] The threshold for the number of tags that determine a valid peak was selected for a false discovery rate of <0.0001, as empirically determined by repeating the peak finding procedure using randomized tag positions. […]

SMILES: C=C1/C(=C\C=C2/CCC[C@]3(C)C([C@H](C)CCCC(C)(C)O)CC[C@@H]23)C[C@@H](O)C[C@@H]1O (stereo partly drawn) [1,25(OH)2D3, 1α,25 dihydroxyvitamin D3]
- culture-induced activation of HSCs (transcriptome) (rat HSCs): attenuated

SMILES: C=C1/C(=C\C=C2/CCC[C@]3(C)[C@@H]([C@H](C)/C=C/[C@@H](O)C4CC4)CC[C@@H]23)C[C@@H](O)C[C@@H]1O [calcipotriol, 1α,24-(OH)2-24-cyclopropyl-D3]
- fibrotic gene expression (LX-2 cells): potently repressed
- calcipotriol-mediated repression of TGFβ1 induced gene expression after loss of VDR (LX-2 cells; siVDR RNAi, Cal 100 nM, TGFβ1 1 ng/ml, 16 hours): abolished
- TGFβ-induced recruitment of SMAD3 globally compromised (SMAD3): ~1.5 fold
